Converted amounts (≈) assume the structure as drawn. Where two headings read alike, the source gives them in different places.
What was measured:
Assay type in all cases: cell-based
M. xenopi (ATCC19250) = experiment: MIC by broth microdilution (CLSI) against M. xenopi; conditions: Mycobacterium xenopi, 168 h, cation adjusted Mueller Hinton broth + ADC (5%), 37° C. for 7 days (at least), read-out: In vitro activity (MIC) M. xenopi
Description: (§1) MIC values were determined by broth microdilution method according to the CLSI guideline. Unless otherwise mentioned, MIC against A. baumannii was performed in RPMI medium supplemented with 10% FCS. MIC against M. abscessus was performed in Middlebrook 7H9 broth supplemented with Middlebrook ADC growth supplement (10%). All other MIC were performed in standard cation adjusted Mueller Hinton broth, supplemented with Middlebrook ADC growth supplement (5%) for the slow growing mycobacteria (M. xenopi, M. kansasii and M. avium).
(§2) The following procedure applies to all species tested, except for M. xenopi. From a fresh culture plate (from overnight to several days depending on the bacteria), cells were resuspended in 0.9% (w/v) saline solution and bacterial inoculum was prepared in the respective testing medium with 5×10^5 CFU/mL. For M. xenopi, the inoculum was prepared from a fresh liquid culture (7H9+ADC). The appropriate volumes of a 10 mg/mL compound solution were directly dispensed in the 96-well assay plate using a digital dispenser to create two-fold dilution series from 32 to 0.002 μg/mL final concentration for A. baumannii and S. aureus; from 16 to 0.016 μg/mL for M. abscessus and M. avium; and from 1 to 6×10^−5 μg/mL for M. kansasii and M. xenopi. 100 μL of bacterial suspension was finally added to the compounds. Plates were covered and incubated without shaking at 35° C. for 20 hours for A. baumanii and S. aureus; at 30° C. for 4 days for M. abscessus; and at 37° C. for 7 days (at least) for M. kansasii (covered with aluminum foil to avoid light exposure), M. avium and M. xenopi. Every experiment contained an antibiotic as quality control. MIC was determined visually as the lowest concentration of a compound that prevents visible growth of the bacteria.
(§3) The in vitro activity of compounds described herein was determined against S. aureus (UAMS-1625 strain), A. baumannii (HUMC1 strain), M. abscessus (ATCC 19977), M. kansasii (ATCC12478), M. avium (ATCC25291), and M. xenopi (ATCC19250).

[1] = system: A. baumannii (HUMC1 strain); experiment: MIC by broth microdilution (CLSI) against A. baumannii; conditions: Acinetobacter baumannii, RPMI medium supplemented with 10% FCS, 35° C. for 20 hours, read-out: In vitro activity (MIC) A. baumannii
Description: as §1, §2, §3

[2] = system: S. aureus (UAMS-1625 strain); experiment: MIC by broth microdilution (CLSI) against S. aureus; conditions: Staphylococcus aureus, 20 h, read-out: In vitro activity (MIC) S. aureus
Description: as §1, §2, §3

M. avium (ATCC25291) = experiment: MIC by broth microdilution (CLSI) against M. avium; conditions: Mycobacterium avium, 168 h, cation adjusted Mueller Hinton broth + ADC (5%), 37° C. for 7 days (at least), read-out: In vitro activity (MIC) M. avium
Description: as §1, §2, §3

M. kansasii (ATCC12478) = experiment: MIC by broth microdilution (CLSI) against M. kansasii; conditions: Mycobacterium kansasii, 168 h, cation adjusted Mueller Hinton broth + ADC (5%), 37° C. for 7 days (at least), read-out: In vitro activity (MIC) M. kansasii
Description: as §1, §2, §3

[3] = system: M. abscessus (ATCC 19977); experiment: MIC by broth microdilution (CLSI) against M. abscessus; conditions: Mycobacteroides abscessus
Description: as §1, §2, §3

[4] = ATCC19977, 96 h, ATCC 19977, Middlebrook 7H9 broth + ADC (10%), 30° C. for 4 days, read-out: In vitro activity (MIC) M. abscessus
[5] = ATCC19977, tested M. abscessus strains, read-out: MIC value on M. abscessus

SMILES	MIC (M. xenopi (ATCC19250))	MIC [1]	MIC [2]	MIC (M. avium (ATCC25291))	MIC (M. kansasii (ATCC12478))	MIC [3, 4]	MIC [3, 5]
CO[C@H]1/C=C/O[C@@]2(C)Oc3c(C)c(O)c4c(c3C2=O)C2=NC3(CCN(CC(C)C)CC3)NC2=C(NC(=O)/C(C)=C\C=C\[C@H](C)[C@H](O)[C@@H](C)[C@@H](O)[C@@H](C)[C@H](OC(=O)Cn2cc(-c3ccccc3)nn2)[C@@H]1C)C4=O [Compound 1]	0.016 µg/mL	0.004 µg/mL (≈ 0.00404 µM)	0.125 µg/mL (≈ 0.126 µM)	0.03 µg/mL	0.002 µg/mL	0.25 µg/mL	–
CO[C@H]1/C=C/O[C@@]2(C)Oc3c(C)c(O)c4c(c3C2=O)C2=NC3(CCN(CC(C)C)CC3)NC2=C(NC(=O)/C(C)=C\C=C\[C@H](C)[C@H](O)[C@@H](C)[C@@H](O)[C@@H](C)[C@H](OC(=O)Cn2cc(C3CC3)nn2)[C@@H]1C)C4=O [Compound 25]	–	≤ 0.002 µg/mL	0.03 µg/mL (≈ 0.0314 µM)	–	–	4 µg/mL	–
CO[C@H]1/C=C/O[C@@]2(C)Oc3c(C)c(O)c4c(c3C2=O)C2=NC3(CCN(CC(C)C)CC3)NC2=C(NC(=O)/C(C)=C\C=C\[C@H](C)[C@H](O)[C@@H](C)[C@@H](O)[C@@H](C)[C@H](OC(=O)Cn2cc(-c3ccc(N)cc3)nn2)[C@@H]1C)C4=O [Compound 3]	–	≤ 0.002 µg/mL	0.03 µg/mL (≈ 0.0298 µM)	–	–	1 µg/mL	–
CO[C@H]1/C=C/O[C@@]2(C)Oc3c(C)c(O)c4c(c3C2=O)C2=NC3(CCN(CC(C)C)CC3)NC2=C(NC(=O)/C(C)=C\C=C\[C@H](C)[C@H](O)[C@@H](C)[C@@H](O)[C@@H](C)[C@H](OC(=O)Cn2cc(CN3CCS(=O)(=O)CC3)nn2)[C@@H]1C)C4=O [Compound 14]	–	≤ 0.002 µg/mL	0.06 µg/mL (≈ 0.0565 µM)	–	–	1 µg/mL	–
CO[C@H]1/C=C/O[C@@]2(C)Oc3c(C)c(O)c4c(c3C2=O)C2=NC3(CCN(CC(C)C)CC3)NC2=C(NC(=O)/C(C)=C\C=C\[C@H](C)[C@H](O)[C@@H](C)[C@@H](O)[C@@H](C)[C@H](OC(=O)Cn2cc(-c3cccs3)nn2)[C@@H]1C)C4=O [Compound 11]	–	0.008 µg/mL (≈ 0.00803 µM)	0.03 µg/mL (≈ 0.0301 µM)	–	–	1 µg/mL	–
COc1ccc2cc(-c3cn(CC(=O)O[C@H]4[C@H](C)[C@H](O)[C@H](C)[C@@H](O)[C@@H](C)/C=C/C=C(/C)C(=O)NC5=C6NC7(CCN(CC(C)C)CC7)N=C6c6c(c(O)c(C)c7c6C(=O)[C@@](C)(O/C=C/[C@H](OC)[C@H]4C)O7)C5=O)nn3)ccc2c1 [Compound 6]	0.03 µg/mL	1 µg/mL (≈ 0.934 µM)	8 µg/mL (≈ 7.47 µM)	0.06 µg/mL	0.002 µg/mL	0.25 µg/mL	–
CO[C@H]1/C=C/O[C@@]2(C)Oc3c(C)c(O)c4c(c3C2=O)C2=NC3(CCN(CC(C)C)CC3)NC2=C(NC(=O)/C(C)=C\C=C\[C@H](C)[C@H](O)[C@@H](C)[C@@H](O)[C@@H](C)[C@H](OC(C)=O)[C@@H]1C)C4=O [Rifabutin, rifabutin]	0.03 µg/mL	≤ 0.002 µg/mL	0.016 µg/mL (≈ 0.0189 µM)	0.125 µg/mL	0.001 µg/mL	8 µg/mL	8 µg/mL (≈ 9.44 µM)
CO[C@H]1/C=C/O[C@@]2(C)Oc3c(C)c(O)c4c(c3C2=O)C2=NC3(CCN(CC(C)C)CC3)NC2=C(NC(=O)/C(C)=C\C=C\[C@H](C)[C@H](O)[C@@H](C)[C@@H](O)[C@@H](C)[C@H](OC(=O)Cn2cc(CNS(=O)(=O)c3ccc(Cl)cc3)nn2)[C@@H]1C)C4=O [Compound 18]	–	0.06 µg/mL (≈ 0.0537 µM)	0.5 µg/mL (≈ 0.447 µM)	–	–	0.5 µg/mL	–
CO[C@H]1/C=C/O[C@@]2(C)Oc3c(C)c(O)c4c(c3C2=O)C2=NC3(CCN(CC(C)C)CC3)NC2=C(NC(=O)/C(C)=C\C=C\[C@H](C)[C@H](O)[C@@H](C)[C@@H](O)[C@@H](C)[C@H](OC(=O)Cn2cc(CCc3ccccc3)nn2)[C@@H]1C)C4=O [Compound 9]	0.03 µg/mL	0.03 µg/mL (≈ 0.0295 µM)	0.5 µg/mL (≈ 0.491 µM)	0.06 µg/mL	0.002 µg/mL	0.25 µg/mL	–
CCCc1cn(CC(=O)O[C@H]2[C@H](C)[C@H](O)[C@H](C)[C@@H](O)[C@@H](C)/C=C/C=C(/C)C(=O)NC3=C4NC5(CCN(CC(C)C)CC5)N=C4c4c(c(O)c(C)c5c4C(=O)[C@@](C)(O/C=C/[C@H](OC)[C@H]2C)O5)C3=O)nn1 [Compound 24]	–	0.004 µg/mL (≈ 0.00418 µM)	0.03 µg/mL (≈ 0.0314 µM)	–	–	1 µg/mL	–
CO[C@H]1/C=C/O[C@@]2(C)Oc3c(C)c(O)c4c(c3C2=O)C2=NC3(CCN(CC(C)C)CC3)NC2=C(NC(=O)/C(C)=C\C=C\[C@H](C)[C@H](O)[C@@H](C)[C@@H](O)[C@@H](C)[C@H](OC(=O)Cn2cc(CNS(=O)(=O)c3ccccc3)nn2)[C@@H]1C)C4=O [Compound 16]	–	0.008 µg/mL (≈ 0.00739 µM)	0.125 µg/mL (≈ 0.115 µM)	–	–	0.5 µg/mL	–
CO[C@H]1/C=C/O[C@@]2(C)Oc3c(C)c(O)c4c(c3C2=O)C2=NC3(CCN(CC(C)C)CC3)NC2=C(NC(=O)/C(C)=C\C=C\[C@H](C)[C@H](O)[C@@H](C)[C@@H](O)[C@@H](C)[C@H](OC(=O)Cn2cc(CC3CCCCC3)nn2)[C@@H]1C)C4=O [Compound 28]	–	0.03 µg/mL (≈ 0.0297 µM)	0.5 µg/mL (≈ 0.495 µM)	–	–	0.5 µg/mL	–
CO[C@H]1/C=C/O[C@@]2(C)Oc3c(C)c(O)c4c(c3C2=O)C2=NC3(CCN(CC(C)C)CC3)NC2=C(NC(=O)/C(C)=C\C=C\[C@H](C)[C@H](O)[C@@H](C)[C@@H](O)[C@@H](C)[C@H](OC(=O)Cn2cc(CNS(C)(=O)=O)nn2)[C@@H]1C)C4=O [Compound 15]	–	≤ 0.002 µg/mL	0.125 µg/mL (≈ 0.122 µM)	–	–	1 µg/mL	–
CO[C@H]1/C=C/O[C@@]2(C)Oc3c(C)c(O)c4c(c3C2=O)C2=NC3(CCN(CC(C)C)CC3)NC2=C(NC(=O)/C(C)=C\C=C\[C@H](C)[C@H](O)[C@@H](C)[C@@H](O)[C@@H](C)[C@H](OC(=O)Cn2cc(CNS(=O)(=O)c3ccc(C)cc3)nn2)[C@@H]1C)C4=O [Compound 17]	–	0.008 µg/mL (≈ 0.00729 µM)	0.25 µg/mL (≈ 0.228 µM)	–	–	0.5 µg/mL	–
CO[C@H]1/C=C/O[C@@]2(C)Oc3c(C)c(O)c4c(O)c(c(/C=N/N5CCN(C)CC5)c(O)c4c3C2=O)NC(=O)/C(C)=C\C=C\[C@H](C)[C@H](O)[C@@H](C)[C@@H](O)[C@@H](C)[C@H](OC(C)=O)[C@@H]1C [Rifampicin, reference compound]	–	–	–	–	–	–	> 32 µg/mL
CO[C@H]1/C=C/O[C@@]2(C)Oc3c(C)c(O)c4c(c3C2=O)C2=NC3(CCN(CC(C)C)CC3)NC2=C(NC(=O)/C(C)=C\C=C\[C@H](C)[C@H](O)[C@@H](C)[C@@H](O)[C@@H](C)[C@H](OC(=O)Cn2cc(C(C)(C)N)nn2)[C@@H]1C)C4=O [Compound 13]	–	≤ 0.002 µg/mL	0.125 µg/mL (≈ 0.129 µM)	–	–	1 µg/mL	–
CO[C@H]1/C=C/O[C@@]2(C)Oc3c(C)c(O)c4c(c3C2=O)C2=NC3(CCN(CC(C)C)CC3)NC2=C(NC(=O)/C(C)=C\C=C\[C@H](C)[C@H](O)[C@@H](C)[C@@H](O)[C@@H](C)[C@H](OC(=O)Cn2cc(-c3ccc(-c5ccccc5)cc3)nn2)[C@@H]1C)C4=O [Compound 7]	–	1 µg/mL (≈ 0.938 µM)	8 µg/mL (≈ 7.5 µM)	–	–	1 µg/mL	–
CO[C@H]1/C=C/O[C@@]2(C)Oc3c(C)c(O)c4c(c3C2=O)C2=NC3(CCN(CC(C)C)CC3)NC2=C(NC(=O)/C(C)=C\C=C\[C@H](C)[C@H](O)[C@@H](C)[C@@H](O)[C@@H](C)[C@H](OC(=O)Cn2cc(C(C)(C)C)nn2)[C@@H]1C)C4=O [Compound 27]	–	0.004 µg/mL (≈ 0.00412 µM)	0.06 µg/mL (≈ 0.0618 µM)	–	–	2 µg/mL	–
CO[C@H]1/C=C/O[C@@]2(C)Oc3c(C)c(O)c4c(c3C2=O)C2=NC3(CCN(CC(C)C)CC3)NC2=C(NC(=O)/C(C)=C\C=C\[C@H](C)[C@H](O)[C@@H](C)[C@@H](O)[C@@H](C)[C@H](OC(=O)Cn2cc(CCCc3ccccc3)nn2)[C@@H]1C)C4=O [Compound 10]	–	0.125 µg/mL (≈ 0.121 µM)	8 µg/mL (≈ 7.75 µM)	–	–	0.5 µg/mL	–
